# Laboratory results from ChEMBL document CHEMBL1147569, “Synthesis and structure-activity relationships of (R)-1-alkyl-3-[2-(2-amino)phenethyl]-5-(2-fluorophenyl)-6-methyluracils as human GnRH receptor antagonists” (Bioorg Med Chem Lett, 2004).
# How the values were obtained:
# [1] = target: T1, Gonadotropin-releasing hormone receptor (Homo sapiens, UniProt P30968); test: Binding affinity towards human gonadotropin-releasing hormone receptor expressed in HEK293 cells using des-Gly10-[125I]Tyr,5 DLeu,6 NMeLeu,7 Pro9-NEt GnRH as radioligand.; format: cell-based
# T1 sequence (P30968 whole entry): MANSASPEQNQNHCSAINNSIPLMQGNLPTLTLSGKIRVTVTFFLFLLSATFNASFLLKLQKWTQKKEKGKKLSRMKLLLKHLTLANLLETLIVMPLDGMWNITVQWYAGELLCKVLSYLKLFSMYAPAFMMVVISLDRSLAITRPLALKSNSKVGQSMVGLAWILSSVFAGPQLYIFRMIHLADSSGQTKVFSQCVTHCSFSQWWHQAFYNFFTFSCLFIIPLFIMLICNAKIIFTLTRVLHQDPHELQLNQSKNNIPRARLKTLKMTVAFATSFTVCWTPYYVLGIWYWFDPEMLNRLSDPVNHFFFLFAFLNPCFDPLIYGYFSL
# HEK293 = test: Inhibitory activity against GnRH (5 nM) stimulated [Ca2+] release in transfected cells; format: functional, cell-based; details: Homo sapiens
SMILES,Ki [1] [nM],IC50 (HEK293) [nM]
CCCCCn1c(C)c(-c2ccccc2F)c(=O)n(C[C@H](N)c2ccccc2)c1=O,230,
Cc1c(-c2ccccc2F)c(=O)n(C[C@H](N)c2ccccc2)c(=O)n1Cc1ccccc1C(F)(F)F,4,
Cc1c(-c2ccccc2F)c(=O)n(C[C@H](N)c2ccccc2)c(=O)n1Cc1cccc(F)c1,67,
Cc1c(-c2ccccc2F)c(=O)n(C[C@H](N)c2ccccc2)c(=O)n1Cc1ccccn1,77,
Cc1c(-c2ccccc2F)c(=O)n(C[C@H](N)c2ccccc2)c(=O)n1CCN1CCNCC1,> 10000,
Cc1c(-c2ccccc2F)c(=O)n(C[C@H](N)c2ccccc2)c(=O)n1Cc1ccccc1,57,
Cc1c(-c2ccccc2F)c(=O)n(C[C@H](N)c2ccccc2)c(=O)n1CC1CCCCC1,200,
Cc1ccc(Cn2c(C)c(-c3ccccc3F)c(=O)n(C[C@H](N)c3ccccc3)c2=O)o1,430,
COCCn1c(C)c(-c2ccccc2F)c(=O)n(C[C@H](N)c2ccccc2)c1=O,1700,
Cc1c(-c2ccccc2F)c(=O)n(C[C@H](N)c2ccccc2)c(=O)n1CC1CC1,1100,
Cc1c(-c2ccccc2F)c(=O)n(C[C@H](N)c2ccccc2)c(=O)n1CCN(C)C,> 10000,
Cc1c(-c2ccccc2F)c(=O)n(C[C@H](N)c2ccccc2)c(=O)n1Cc1c(F)cccc1Cl,0.7,2.8
Cc1c(-c2ccccc2F)c(=O)n(C[C@H](N)c2ccccc2)c(=O)n1Cc1ccc(F)cc1Cl,33,
Cc1ccccc1Cn1c(C)c(-c2ccccc2F)c(=O)n(C[C@H](N)c2ccccc2)c1=O,35,

# The next lines start with results.
Ki [1] [nM],SMILES,IC50 (HEK293) [nM]
> 10000,Cc1c(-c2ccccc2F)c(=O)n(C[C@H](N)c2ccccc2)c(=O)n1CCO,
> 10000,Cc1c(-c2ccccc2F)c(=O)n(C[C@H](N)c2ccccc2)c(=O)n1CCc1ccccn1,
260,Cc1c(-c2ccccc2F)c(=O)n(C[C@H](N)c2ccccc2)c(=O)n1C1CCCCC1,
6,Cc1c(-c2ccccc2F)c(=O)n(C[C@H](N)c2ccccc2)c(=O)n1Cc1c(F)cccc1F,
230,COc1ccccc1Cn1c(C)c(-c2ccccc2F)c(=O)n(C[C@H](N)c2ccccc2)c1=O,
140,Cc1c(-c2ccccc2F)c(=O)n(C[C@H](N)c2ccccc2)c(=O)n1C(C)c1ccccc1 (some centres not stated),
700,Cc1c(-c2ccccc2F)c(=O)n(C[C@H](N)c2ccccc2)c(=O)n1Cc1cccnc1,
1000,Cc1c(-c2ccccc2F)c(=O)n(C[C@H](N)c2ccccc2)c(=O)n1CCc1ccccc1,
20,Cc1c(-c2ccccc2F)c(=O)n(C[C@H](N)c2ccccc2)c(=O)n1Cc1ccccc1F,
27,Cc1c(-c2ccccc2F)c(=O)n(C[C@H](N)c2ccccc2)c(=O)n1Cc1ccccc1Cl,
500,Cc1c(-c2ccccc2F)c(=O)n(C[C@H](N)c2ccccc2)c(=O)n1CC(C)C,
75,Cc1c(-c2ccccc2F)c(=O)n(C[C@H](N)c2ccccc2)c(=O)n1Cc1ccc(F)cc1,
